Laboratory results as given in patent US20170232031A1, “Inhibitors of Zika Virus” (Riboscience LLC, priority 2016, published 2017).
Entries after “also recorded” stand apart in the source; their conditions may differ. Where two headings read alike, the source gives them in different places. Each block holds one molecule with its values, some of them ahead of it.

How the values were obtained:
[1] = molecular target: T1, mitochondrial DNA polymerase pol γ (Homo sapiens, UniProt P54098); test: Inhibition of mitochondrial DNA polymerase pol γ; assay type: biochemical; conditions: comparison nucleoside triphosphates; read-out: DNA pol γ mean IC50
T1 sequence (P54098 1-1239): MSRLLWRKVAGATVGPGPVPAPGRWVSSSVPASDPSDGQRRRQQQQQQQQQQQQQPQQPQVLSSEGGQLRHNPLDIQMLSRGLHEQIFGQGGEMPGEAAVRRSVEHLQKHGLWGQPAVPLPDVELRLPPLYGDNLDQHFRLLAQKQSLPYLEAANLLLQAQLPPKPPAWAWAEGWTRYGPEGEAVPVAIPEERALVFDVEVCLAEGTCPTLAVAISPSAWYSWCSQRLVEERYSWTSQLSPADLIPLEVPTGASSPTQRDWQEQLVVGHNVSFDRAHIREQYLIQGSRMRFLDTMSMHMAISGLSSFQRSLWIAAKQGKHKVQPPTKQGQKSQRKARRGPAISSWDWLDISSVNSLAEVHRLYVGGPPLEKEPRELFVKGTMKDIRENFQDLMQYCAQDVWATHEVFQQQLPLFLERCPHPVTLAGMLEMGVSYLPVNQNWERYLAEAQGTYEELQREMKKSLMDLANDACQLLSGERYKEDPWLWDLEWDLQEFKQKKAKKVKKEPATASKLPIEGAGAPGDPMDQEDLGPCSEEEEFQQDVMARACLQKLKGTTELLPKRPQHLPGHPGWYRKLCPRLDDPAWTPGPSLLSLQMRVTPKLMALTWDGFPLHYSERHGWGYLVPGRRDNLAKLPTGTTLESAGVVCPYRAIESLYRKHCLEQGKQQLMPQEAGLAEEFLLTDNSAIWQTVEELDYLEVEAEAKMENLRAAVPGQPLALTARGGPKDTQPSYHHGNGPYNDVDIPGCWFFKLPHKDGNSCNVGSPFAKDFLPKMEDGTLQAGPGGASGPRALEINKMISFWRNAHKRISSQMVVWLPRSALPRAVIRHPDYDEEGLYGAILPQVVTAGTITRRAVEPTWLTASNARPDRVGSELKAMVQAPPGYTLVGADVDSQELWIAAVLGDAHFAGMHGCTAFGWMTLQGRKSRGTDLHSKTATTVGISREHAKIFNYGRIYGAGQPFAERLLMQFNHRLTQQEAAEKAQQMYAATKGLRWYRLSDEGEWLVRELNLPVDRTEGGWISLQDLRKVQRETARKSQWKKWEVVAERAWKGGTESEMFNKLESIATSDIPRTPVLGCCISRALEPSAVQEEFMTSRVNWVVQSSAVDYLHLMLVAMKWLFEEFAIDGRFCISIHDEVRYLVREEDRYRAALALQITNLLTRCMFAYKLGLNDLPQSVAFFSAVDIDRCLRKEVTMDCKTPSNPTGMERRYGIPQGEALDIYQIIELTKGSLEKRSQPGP

in vitro = assay type: cell-based; conditions: human; Huh-7 cell derived CHIKV replicon cells
Description: (§1) FIG. 3. Antiviral activity of I-3 against ZIKV and CHIKV replication and cell viability determined in Huh-7 cell derived CHIKV replicon cells by intracellular ATP quantification (CellTiter-Glo).
(§2) Antiviral activity of I-3 (prodrug of 4AU) against ZIKV and CHIKV replication and cell viability determined in Huh-7 cell derived CHIKV replicon cells by intracellular ATP quantification (CellTiter-Glo).

[2] = 13 week, GLP; cited from earlier work
[3] = test system: Chikungunya replicon (CHIKV strain LR2006 OPY-1, GenBank EU224270); test: Chikungunya replicon antiviral activity; assay type: cell-based; conditions: Chikungunya virus
Description: as §1, §2

[4] = assay type: in vitro ADME, human
Experimental: The formation of 4AUTP triphosphate is determined in human cells (Huh-7 cells, PBMC), and representative mouse, rat, dog and cynomolgus monkey cells. The intracellular triphosphate concentration is determined using LC-MS/MS. In human cells, the time and concentration dependent formation of 4AUTP triphosphate is determined, as well as the half-life after removal of all extracellular prodrug by exchange of cell culture medium. Analysis of intracellular nucleoside phosphates is conducted using well-established methods.

[5] = Cytotoxicity (CC50) alongside HCV GT1b replicon assay; conditions: HCV GT1b (Con1) replicon cells
HCV replication = conditions: humans; cited from earlier work
[6] = 13 week, GLP; cited from earlier work; remark: listed apart in the source
HepG2 cells = test: Mitochondrial toxicity in HepG2 cells (COX-I / SDH-A ratio); conditions: up to 11-day incubation
Description: Mean values shown as individual data points; standard deviations as error bars (FIG. 4).

[7] = human, in vivo; cited from earlier work
[8] = test system: HCV replicon of genotype 1b (Con1); test: HCV replicon genotype 1b antiviral activity; assay type: cell-based; conditions: Hepatitis C virus; replicon genotype 1b (Con1); read-out: HCV GT1b EC50
human RNA polymerase II = molecular target: T2, human RNA polymerase II (Homo sapiens, UniProt P24928+P30876); test: RNA polymerase II specific reporter gene assay in HeLa cells; assay type: cell-based; conditions: 10 or 100 μM (highest soluble concentrations)
T2 construct: endogenous in cells; host or cells: HeLa

[9] = test system: ZIKV strain MR766 (Genbank LC002520); test: Antiviral activity against ZIKV replication in cells; assay type: cell-based, Zika virus
Experimental: (§3) The human hepatoma cell line Huh-7, are cultured in DMEM without phenol-red (Cellgro Mediatech, Cat #10-013-CV containing 4.5 g/l glucose, L-glutamine & sodium pyruvate). The medium is further supplemented with 10% (v/v) FBS (ATLAS Cat # F-0500-A, lot#850114A) and 1% (vlv) penicillin/streptomycin (Cellgro Mediatech #30-022-CI). Cells are maintained at 37° C. in a humidified 5% CO2 atmosphere. Zika virus representative strain titers are measured on BHK-21 cells, using a standard plaque assay procedure. For the determination of EC50 of nucleoside in the antiviral assay, Huh-7 cells are plated in white 96-well plates in MEM media supplemented with 10% FBS and 1% penicillin/streptomycin. After incubation for 24 h, the cells are infected at a multiplicity of infection (MOI) of 0.5 for 2 h at 37° C. Ten three-fold dilutions of compounds are prepared in the same media supplemented with 1% DMSO. After the 2 h adsorption phase, the virus is aspirated off and diluted compound is added to four wells each. Huh-7 cells are plated as described above and exposed to the same concentration range of compounds. Untreated cells are carried along as a control. After a 3-day incubation at 37° C., the cell viability is determined using Cell-titer Glo™ reagent (Promega, Madison, Wis.) that is added to each well and incubated for 5 min. Plates are analyzed using a Thermo Luminoskan plate reader (Waltham, Mass.).

[10] = Cell viability (CC50) alongside ZIKV antiviral assay, Cell-titer Glo; assay type: cell-based; conditions: human, Huh-7 cells
Experimental: as §3

human RNA polymerase III = molecular target: T3, human RNA polymerase III (Homo sapiens, UniProt O14802+Q9NW08); test: RNA polymerase III specific reporter gene assay in HeLa cells; assay type: cell-based; conditions: 10 or 100 μM (highest soluble concentrations)
T3 construct: endogenous in cells; host or cells: HeLa

human RNA polymerase I = molecular target: T4, human RNA polymerase I (Homo sapiens, UniProt O95602+Q9H9Y6); test: RNA polymerase I specific reporter gene assay in HeLa cells; assay type: cell-based; conditions: 10 or 100 μM (highest soluble concentrations)
T4 construct: endogenous in cells; host or cells: HeLa

ZIK-V-RLuc = test: Renilla Luciferase (Rluc) assay, % infection of ZIK-V-RLuc; assay type: cell-based; conditions: Zika virus, 72 h, read-out: IC50 Zika
Experimental: FIG. 1. Graph of % infection of ZIK-V-RLuc at 72 h.p.i. vs. IC50 concentration (μM) of compound I-36.
FIG. 2. Graph of % infection of ZIK-V-RLuc at 72 h.p.i. vs. IC50 concentration (μM) of compound I-37.
Single Epimers I-36 and I-37, of I-1 were tested in the Rluc assay at 72 h.p.i. for % inhibition vs. concentration of compound (FIGS. 1-2): […]

SMILES: Cc1cn([C@H]2C[C@H](N=[N+]=[N-])[C@@H](COP(=O)(O)OP(=O)(O)OP(=O)(O)O)O2)c(=O)[nH]c1=O [AZT triphosphate]
IC50 [1]: 2.47 µM

SMILES: [N-]=[N+]=N[C@]1(CO)O[C@@H](n2ccc(=O)[nH]c2=O)[C@H](O)[C@@H]1O [Compound 4AU, 4′-azidouridine]
CC50 (in vitro): > 1000 µM
safety in chronic toxicity study, monkeys [2]: safety of 4AU has already been demonstrated
EC50 [3]: > 100 µM
conversion to 4AU-triphosphate (4AUTP) [4]: not efficiently converted
CC50 [5]: > 1000 µM
antiviral activity against HCV replication in Phase 1 study (HCV replication): significant antiviral activity
safety in chronic toxicity study, rats [6]: safety of 4AU has already been demonstrated
mitochondrial toxicity (HepG2 cells): No mitochondrial toxicity; also recorded: lack of mitochondrial toxicity
safety in Phase 1 clinical study [7]: safety of 4AU has already been demonstrated
EC50 [8]: 217 µM

SMILES: CCOC(=O)[C@H](C)NP(=O)(OC[C@@]1(N=[N+]=[N-])O[C@@H](n2ccc(=O)[nH]c2=O)[C@H](O)[C@@H]1O)Oc1cccc2ccccc12 (stereo partly drawn) [Compound I-3, ethyl ((((2R,3S,4R,5R)-2-azido-5-(2,4-dioxo-3,4-dihydropyrimidin-1(2H)-yl)-3,4-dihydroxytetrahydrofuran-2-yl)methoxy)(naphthalen-1-yloxy)phosphoryl)-L-alaninate]
CC50 (in vitro): > 100 µM
inhibition of human RNA polymerase II activity (reporter gene) (human RNA polymerase II): did not inhibit
EC50 [3]: 4.1 µM
CC50 [5]: > 100 µM
EC50 ([9]; Zika virus, ZIKV strain MR766, human Huh-7 or mouse MEF cells): 480 nM
antiviral inhibition potency (EC50), in words ([9]; summary statement): submicromolar
CC50 at 3 day ([10]; cytotoxicity column of the ZIKV assay, read-out: ZIKV CC50): > 100 µM
CC50 at 3 day ([10]; summary statement, cytotoxicity in cell culture, read-out: Huh-7 cell CC50): > 100 µM
inhibition of human RNA polymerase III activity (reporter gene) (human RNA polymerase III): did not inhibit
EC50 [8]: 0.4 µM
inhibition of human RNA polymerase I activity (reporter gene) (human RNA polymerase I): did not inhibit

SMILES: C[C@H](N[P@@](=O)(OC[C@@]1(N=[N+]=[N-])O[C@@H](n2ccc(=O)[nH]c2=O)[C@H](O)[C@@H]1O)Oc1cccc2ccccc12)C(=O)OCc1ccccc1 [Compound I-36, benzyl ((R)-(((2R,3S,4R,5R)-2-azido-5-(2,4-dioxo-3,4-dihydropyrimidin-1(2H)-yl)-3,4-dihydroxytetrahydrofuran-2-yl)methoxy)(naphthalen-1-yloxy)phosphoryl)-L-alaninate]
IC50 (ZIK-V-RLuc): 1100 nM

SMILES: C[C@H](N[P@](=O)(OC[C@@]1(N=[N+]=[N-])O[C@@H](n2ccc(=O)[nH]c2=O)[C@H](O)[C@@H]1O)Oc1cccc2ccccc12)C(=O)OCc1ccccc1 [Compound I-37, benzyl ((S)-(((2R,3S,4R,5R)-2-azido-5-(2,4-dioxo-3,4-dihydropyrimidin-1(2H)-yl)-3,4-dihydroxytetrahydrofuran-2-yl)methoxy)(naphthalen-1-yloxy)phosphoryl)-L-alaninate]
IC50 (ZIK-V-RLuc): 1650 nM

IC50 [1]: 149 µM
SMILES: Nc1ccn([C@@H]2CS[C@H](COP(=O)(O)OP(=O)(O)OP(=O)(O)O)O2)c(=O)n1 [lamivudine triphosphate]
